Measurements reported in ChEMBL document CHEMBL1201862, “PubChem BioAssay data set” (2004).
Calls of active or inactive are those of the source. For most assays here, no stated cut-off is given here; in the data, actives have a measured EC50 and inactives only a lower limit.

Assays:
Paired box protein Pax-8 = Paired box protein Pax-8 (Homo sapiens, UniProt Q06710); experiment: PAX8 transcriptional activity inhibition in RMG-I – RMG-I cells, luciferase, cherry-pick, dose response (AID 687027); assay type: functional, cell-based;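 further: luciferase reporter driven by Pax8 target thyroperoxidase promoter measured by SteadyGlo luminescence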
Paired box protein Pax-8, sequence (Q06710 whole entry): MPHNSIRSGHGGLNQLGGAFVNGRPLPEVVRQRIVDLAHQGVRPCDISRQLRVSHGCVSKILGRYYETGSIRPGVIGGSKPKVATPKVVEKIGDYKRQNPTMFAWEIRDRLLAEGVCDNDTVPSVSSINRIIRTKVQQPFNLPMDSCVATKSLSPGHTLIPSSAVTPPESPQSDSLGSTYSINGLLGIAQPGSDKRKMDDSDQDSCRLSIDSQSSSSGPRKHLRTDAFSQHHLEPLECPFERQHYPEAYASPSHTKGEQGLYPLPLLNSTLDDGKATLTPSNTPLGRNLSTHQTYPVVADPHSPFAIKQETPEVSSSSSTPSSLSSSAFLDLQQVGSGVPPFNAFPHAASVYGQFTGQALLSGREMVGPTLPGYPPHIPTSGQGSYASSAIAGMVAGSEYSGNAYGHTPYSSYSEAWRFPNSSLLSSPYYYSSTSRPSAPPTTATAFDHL

Protein skinhead-1 = target: T1, Protein skinhead-1 (Caenorhabditis elegans, UniProt P34707); assay type: functional
T1 sequence (P34707 whole entry): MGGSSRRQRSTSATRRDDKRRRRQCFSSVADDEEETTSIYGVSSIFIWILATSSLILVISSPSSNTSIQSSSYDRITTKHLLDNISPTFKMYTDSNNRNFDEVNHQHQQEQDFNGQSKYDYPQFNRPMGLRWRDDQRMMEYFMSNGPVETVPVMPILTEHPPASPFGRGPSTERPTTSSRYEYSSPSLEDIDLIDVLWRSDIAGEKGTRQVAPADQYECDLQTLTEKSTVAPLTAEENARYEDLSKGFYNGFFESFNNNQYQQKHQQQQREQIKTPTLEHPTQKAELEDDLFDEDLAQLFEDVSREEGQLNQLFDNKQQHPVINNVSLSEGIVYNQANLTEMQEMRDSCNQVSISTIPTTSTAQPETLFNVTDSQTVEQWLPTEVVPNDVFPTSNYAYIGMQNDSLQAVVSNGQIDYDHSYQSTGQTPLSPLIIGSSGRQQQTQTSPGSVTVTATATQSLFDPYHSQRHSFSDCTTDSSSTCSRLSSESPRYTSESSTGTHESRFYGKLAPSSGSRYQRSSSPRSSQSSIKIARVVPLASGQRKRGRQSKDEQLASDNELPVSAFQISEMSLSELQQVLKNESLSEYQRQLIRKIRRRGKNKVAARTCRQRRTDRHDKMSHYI

[1] = target: T2, RNA-binding protein pos-1 (Caenorhabditis elegans, UniProt G5EF15); experiment: disruptors of C. elegans POS-1 RNA interaction – biochemical, fluorescence polarization, dose response (AID 1964);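 further: purified POS-1 fused to maltose binding protein made in E. coli; potency of compounds blocking POS-1 binding to fluorescent RNA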
T2 sequence (G5EF15 whole entry): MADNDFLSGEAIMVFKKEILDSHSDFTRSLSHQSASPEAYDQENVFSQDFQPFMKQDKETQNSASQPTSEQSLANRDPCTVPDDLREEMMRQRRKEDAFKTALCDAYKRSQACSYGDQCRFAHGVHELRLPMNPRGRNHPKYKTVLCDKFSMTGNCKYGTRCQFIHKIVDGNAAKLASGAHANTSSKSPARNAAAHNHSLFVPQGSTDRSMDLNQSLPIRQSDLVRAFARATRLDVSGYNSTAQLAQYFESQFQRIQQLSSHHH

[2] = target: T3, Zinc finger protein mex-5 (Caenorhabditis elegans, UniProt Q9XUB2); experiment: potency of MEX-5 RNA-binding blockers – biochemical, C. elegans, fluorescence polarization, dose response (AID 1960)
T3 sequence (Q9XUB2 whole entry): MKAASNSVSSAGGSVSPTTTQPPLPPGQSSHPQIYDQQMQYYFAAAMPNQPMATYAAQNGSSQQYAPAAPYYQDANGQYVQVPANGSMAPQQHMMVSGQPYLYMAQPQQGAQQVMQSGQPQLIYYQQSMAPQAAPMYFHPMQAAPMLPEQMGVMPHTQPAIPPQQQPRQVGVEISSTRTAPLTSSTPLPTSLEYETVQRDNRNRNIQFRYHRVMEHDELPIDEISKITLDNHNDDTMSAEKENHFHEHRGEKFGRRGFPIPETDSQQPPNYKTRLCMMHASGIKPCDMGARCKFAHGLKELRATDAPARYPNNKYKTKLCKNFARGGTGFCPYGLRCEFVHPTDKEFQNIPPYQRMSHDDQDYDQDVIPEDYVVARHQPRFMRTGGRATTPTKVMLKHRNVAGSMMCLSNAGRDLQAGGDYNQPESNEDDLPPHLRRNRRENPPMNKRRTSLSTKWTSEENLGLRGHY

Streptokinase A = target: T4, Streptokinase A (Streptococcus pyogenes serotype M1, UniProt P10520); experiment: viability-normalized secreted streptokinase activity reduction – plasminogen activation absorbance, OD405, dose response (AID 1914); assay type: functional, Streptococcus pyogenes M1 GAS;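 further: secreted streptokinase activity via plasminogen activation per viability signal from cell pellet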
T4 sequence (P10520 whole entry): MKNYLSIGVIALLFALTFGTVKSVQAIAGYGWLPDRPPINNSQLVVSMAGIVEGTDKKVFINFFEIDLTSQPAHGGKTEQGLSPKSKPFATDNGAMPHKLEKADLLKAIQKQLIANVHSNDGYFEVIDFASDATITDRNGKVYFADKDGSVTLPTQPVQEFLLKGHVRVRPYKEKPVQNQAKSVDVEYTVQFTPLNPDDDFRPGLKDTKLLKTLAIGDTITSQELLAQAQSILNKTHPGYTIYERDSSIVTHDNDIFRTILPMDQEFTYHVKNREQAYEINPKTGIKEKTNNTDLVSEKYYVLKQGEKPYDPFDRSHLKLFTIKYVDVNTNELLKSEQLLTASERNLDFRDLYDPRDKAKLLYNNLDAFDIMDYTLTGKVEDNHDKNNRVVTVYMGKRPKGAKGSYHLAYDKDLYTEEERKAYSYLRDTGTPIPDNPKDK

Streptococcus = experiment: GAS UMAA2166 growth inhibition – luminescence, BacTiterGlo, counter-screen for streptokinase expression inhibitor project, dose response (AID 1915); assay type: functional, organism-based;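 further: potency for reduction of bacterial viability or growth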
[3] = tested on: Streptococcus sp. 'group A'; experiment: Streptococcus pyogenes SK(-)GAS viability under kanamycin – luminescence, BacTiterGlo, confirmation, counter-screen for streptokinase expression inhibitor project, dose response (AID 1900); assay type: functional, organism-based
[4] = NIH3T3 cell viability loss – ATP luminescence, mouse fibroblasts, counter-screen, dose response (AID 2010); assay type: functional, cell-based;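 further: cells exposed to compound for about 90 hours before reading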
[5] = Trypanosoma cruzi growth suppression in host cells – NIH3T3 host cells, beta-gal luminescence, confirmation (AID 2044); assay type: functional, cell-based;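 further: intracellular parasites grown in NIH/3T3 mouse fibroblasts as host cells; luminescent beta-galactosidase reporter signal from transgenic T. cruzi replicating inside host cells; inhibitors lower the luminescence signal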
BJ [6] = experiment: BJ-TERT fibroblast viability loss – cell-based, RAS-independent, luminescence, dose response (AID 1933); assay type: functional; conditions: Homo sapiens
[7] = DRD fibroblast viability loss – cell-based, non-viral oncogenic, luminescence, dose response (AID 1934); assay type: functional; conditions: Homo sapiens
BJ [8] = experiment: cells; assay type: functional, cell-based; conditions: Homo sapiens
BJ [9] = experiment: BJ-TERT-LT-ST fibroblast viability loss – cell-based, RAS-independent, luminescence, dose response (AID 1935); assay type: functional; conditions: Homo sapiens;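 further: BJ fibroblasts immortalized with TERT plus LT and ST oncogenes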
[10] = target: T5, Carboxy-terminal domain RNA polymerase II polypeptide A small phosphatase 1 (Homo sapiens, UniProt Q9GZU7); experiment: CTDSP1 inhibitors, concentration-response, biochemical, absorbance readout, ultra-high-throughput screen actives (AID 540297); assay type: functional
T5 sequence (Q9GZU7 whole entry): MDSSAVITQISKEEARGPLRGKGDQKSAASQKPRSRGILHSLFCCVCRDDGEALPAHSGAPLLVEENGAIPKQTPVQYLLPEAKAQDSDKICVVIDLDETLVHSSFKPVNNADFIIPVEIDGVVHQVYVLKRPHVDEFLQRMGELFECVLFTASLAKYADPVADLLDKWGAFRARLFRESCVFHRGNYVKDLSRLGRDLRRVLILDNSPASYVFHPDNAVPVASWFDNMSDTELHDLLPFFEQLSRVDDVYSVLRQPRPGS

COc1cc2nc(C3CCC3)nc(N3CCN(c4ccccc4OC)CC3)c2cc1OC
AC50 (Paired box protein Pax-8): 18.9 µM (active)

Cc1cc(C)c(NC(=O)COC(=O)C2CCN(c3ccc(C(F)(F)F)cn3)CC2)c(Cl)c1
IC50 (Protein skinhead-1): > 100 µM (inactive)

O=C(NCCF)C1Nc2ccc(OC(F)(F)F)cc2C2C=CCC12 (centres undefined)
EC50 [1]: > 300 µM (not active) | EC50 [2]: > 300 µM (not active)

CCOc1ccc2nc(NC(=O)CN3CCC(n4nnc5cc(C(F)(F)F)ccc54)CC3)sc2c1
EC50 (Streptokinase A): > 150 µM (not active) | EC50 (Streptococcus): > 150 µM (not active) | IC50 (Protein skinhead-1): > 100 µM (inactive) | EC50 [3]: 68.6 µM (active)

N=c1c(S(=O)(=O)c2ccc(Cl)cc2)cc2c(=O)n3ccccc3nc2n1CCc1ccccc1
EC50 [1]: > 300 µM (inconclusive) | EC50 [4]: > 60 µM (not active) | EC50 [2]: 1.39 µM (active) | EC50 [5]: 0.377 µM (active)

O=C(O)CCc1ccc(-c2cccs2)n1-c1ccc(C(=O)O)cc1
EC50 [1]: > 300 µM (not active) | EC50 [2]: > 300 µM (not active)

O=C(O)c1ccc(Nc2ccc([N+](=O)[O-])c3nonc23)cc1
IC50 (Protein skinhead-1): 48.5 µM (active)

C=C1[C@@H](C)C2[C@H](Cc3ccccc3)NC(=O)[C@]23OC(=O)CC[C@H](O)CCC[C@H](C)C/C=C/[C@H]3[C@@H]1O (some centres undefined)
EC50 (BJ [6]): 8.36 µM (inconclusive) | EC50 [7]: 12.2 µM (inconclusive) | EC50 (BJ [8]): > 150 µM (not active) | EC50 (BJ [9]): 17.2 µM (active)

c1ccc(-c2ccc(-c3ccncn3)cc2)cc1
IC50 (Protein skinhead-1): 15.2 µM (active)

CC(C)(C)OC(=O)NCCCC1=CC2=CC(=O)C(C)(OC(=O)c3ccc(Cl)nc3)C(=O)C2=CO1 (centres undefined)
EC50 [1]: 17.2 µM (active) | EC50 [2]: 20 µM (active)

CCOc1ccc(C(=O)Nc2ccc(NC(=O)c3ccccc3)c(C)c2)cc1[N+](=O)[O-]
IC50 [10]: 5.03 µM (active)

Cc1ccc2[nH]c(/C(C#N)=C/c3ccc(-c4cccc([N+](=O)[O-])c4)o3)nc2c1
IC50 [10]: 6.06 µM (active)
